# Data from patent publication US20050004094A1, “Cephem compounds” (priority 2003, published 2005).
# Tested on: Pseudomonas aeruginosa FP 1456
# Test: In vitro antibacterial activity, two-fold agar-plate dilution method (MIC)
# Format: cell-based
# Conditions: incubation at 37° C. for 20 hours; for MIC: FP1456, heart infusion agar, read-out: MIC (minimal inhibitory concentration)
# Method: In vitro antibacterial activity was determined by the two-fold agar-plate dilution method as described below. One loopful of an overnight culture of each test strain in Trypticase-soy broth (10^6 viable cells per ml) was streaked on heart infusion agar (HI-agar) containing graded concentrations of representative test compound, and the minimal inhibitory concentration (MIC) was expressed in μg/ml after incubation at 37° C. for 20 hours.
MIC [µg/mL],MIC (minimal inhibitory concentration) (heart infusion agar) [µg/mL],Compound
2,,"Cn1c(CCNC(=N)N)cc[n+]1CC1=C(C(=O)[O-])N2C(=O)[C@@H](NC(=O)/C(=N\OC(C)(C)C(=O)O)c3nsc(N)n3)[C@H]2SC1 [Compound (b), 3-{[3-(2-{[amino(imino)methyl]amino}ethyl)-2-methyl-1-pyrazolio]methyl}-7β-({(2Z)-2-(5-amino-1,2,4-thiadiazol-3-yl)-2-[(1-carboxy-1-methylethoxy)imino]ethanoyl}-amino)-3-cephem-4-carboxylate]"
,2,"Cn1cc(CCN)c[n+]1CC1=C(C(=O)[O-])N2C(=O)[C@@H](NC(=O)/C(=N\OC(C)(C)C(=O)O)c3nsc(N)n3)[C@H]2SC1 [Compound (c), 3-{[4-(2-aminoethyl)-2-methyl-1-pyrazolio]methyl}-7β-({(2Z)-2-(5-amino-1,2,4-thiadiazol-3-yl)-2-[(l-carboxy-1-methylethoxy)imino]ethanoyl}amino)-3-cephem-4-carboxylate]"
32,,"CC(C)(O/N=C(\C(=O)N[C@@H]1C(=O)N2C(C(=O)[O-])=C(C[n+]3ccccc3)CS[C@H]12)c1csc(N)n1)C(=O)O [Ceftazidime, reference compound]"
1,,"Cn1c(CCN)cc[n+]1CC1=C(C(=O)O)N2C(=O)[C@@H](NC(=O)/C(=N\OC(C)(C)C(=O)O)c3nsc(N)n3)[C@H]2SC1.O=S(=O)([O-])O [Compound (a), 3-[3-(2-aminoethyl)-2-methyl-1-pyrazolio]methyl-7β-[(Z)-2-(5-amino-1,2,4-thiadiazol-3-yl)-2-(1-carboxy-1-methylethoxyimino)acetamido]-3-cephem-4-carboxylic acid hydrogen sulfate]"
